Values of other authors in US20120077687A1, “PROGNOSTIC AND PREDICTIVE GENE SIGNATURE FOR NON-SMALL CELL LUNG CANCER AND ADJUVANT CHEMOTHERAPY” (priority 2010, published 2012).
Read-outs that look alike come from different tables or passages of the source.

Key:
stage IB NSCLC patients = details: 344 stage IB patients, chemotherapy vs observation
[1] = system: non-small cell lung cancer (NSCLC) patients; details: for HR (survival): LACE meta-analysis

Compound | HR, disease-free survival (stage IB NSCLC patients; p=0.065) | HR, overall survival (stage IB NSCLC patients; p=0.12) | 5-year survival advantage conferred by adjuvant chemotherapy ([1]; ANITA trial, 840 stage IB-IIIA patients) [%] | 5-year survival advantage conferred by adjuvant chemotherapy ([1]; IALT, 1,867 stage I-III patients) [%] | absolute survival advantage at 5-year ([1]; LACE meta-analysis of 5 cisplatin-based trials) [%] | HR (survival) ([1]; all patients, 95% CI 0.82-0.96, p=0.004) | HR (survival) ([1]; stage IA patients, 95% CI 0.96-2.09, detriment suggested) | HR (survival) ([1]; stage IB patients, 95% CI 0.78-1.10, no significant benefit) | 5-year survival advantage conferred by adjuvant chemotherapy ([1]; NCIC CTG BR.10 Trial, 483 stage IB-II patients) [%]
carboplatin and paclitaxel | 0.80 | 0.83 | – | – | – | – | – | – | –
N.N.[Cl][Pt][Cl] [cisplatin] | – | – | 9 | 4 | 5.3 | 0.89 | 1.41 | 0.92 | 15
